Laboratory results from ChEMBL document CHEMBL1133885, “A short synthesis of argatroban. a potent selective thrombin inhibitor” (Bioorg Med Chem Lett, 2001).
pIC50: −log10 of the molar value.

Experiment: Concentration required for 50% inhibition of thrombin induced platelet aggregation
Assay type: functional

Work on `C[C@@H]1CCN(C(=O)[C@H](CCCNC(=N)N)NS(=O)(=O)c2cccc3c2NC[C@H](C)C3)[C@@H](C(=O)O)C1` [ARGATROBAN] yielded a pIC50 of 8.05.
